# Measurements taken from patent publication US20200375929A1, “METHODS AND COMPOSITIONS FOR THE TREATMENT OF DISEASES ASSOCIATED WITH CANCER, INFLAMMATION, OR IMMUNE RESPONSE” (Washington University, priority 2017, published 2020).
# Entries after “also recorded” stand apart in the source; their conditions may differ.
# How the values were obtained:
# IκBζ = assay: Ikb-ζ protein in LPS-stimulated human monocytes (western blot); type: cell-based; settings: human monocytes, DI 12 h, LPS 100 ng/ml
# Experimental: (§1) Cells were lysed in RIPA Lysis Buffer System (Santa Cruz) and heat-denatured at 95° C. for 5 min in reducing sample buffer (BioRad). Proteins were separated on 4%-20% polyacrylamide gradient gels (BioRad) and transferred onto 0.45 μm pore size PVDF membranes (Millipore). Non-specific binding was blocked with 5% skim milk (or 5% BSA when phospho-proteins were analyzed), and membranes were probed with primary antibodies specific to Nrf2 (#12721), HO-1 (#70081), IκBζ (mouse specific, #93726), IκBζ(#9244), ATF3 (#D2Y5W), IRAK1 (#4504; sensitivity of IRAK1 detection diminishes upon IRAK1 K63 ubiquitination), phospho-IKK (Ser176/180, #2697), p62/SQSTM1 (#5114), phospho-eIF2α (Ser51, #9721), eIF2α (#5324) from Cell Signaling; GAPDH (sc-25778), IκBα (sc-1643), ATF3 (sc-188), SDHA (sc-166909) from Santa Cruz; NQO1 (ab28947) from Abeam, followed by incubation with anti-rabbit-HRP (1:10,000; sc-2030) or anti-mouse-HRP (1:10,000; sc-2031) from Santa Cruz and Clarity western ECL substrate (Bio-Rad). […]
# Blood from healthy donors was acquired from LRS chambers supplied by the Mississippi Valley Regional Blood Center. […] After extensive washes to allow removal of non-adherent cells, monocytes (>95% purity) were harvested, counted and 5×10^5 cells were plated per well in 24-well plates. […]
# SDH = biological target: T1, SDH (Mus musculus, UniProt Q8K2B3); assay: SDH activity in mouse heart and liver; type: in vivo; settings: daily DI administration i.p.
# T1 construct: from tissue; host or cells: mitochondria isolated from mouse heart and liver
# Experimental: DI was administered to mice via the intraperitoneal route at 20 mg/500 μL sterile PBS per mouse either once per day for total length of 4 days (DI daily) or every 2 h, 3 times in total (DI overdose). In daily DI administration, last injection was 6 h before the tissue harvest, in DI overdose protocol last injection was 2 h before harvest. Mice were euthanized and heart (50 mg) and liver tissue (200 mg) were harvested, washed in PBS and processed for mitochondria isolation with Mitochondria Isolation Kit for Tissue (#89801, Thermo Scientific) according to manufacturer's instruction. For analysis of mitochondria purity cytoplasmic and mitochondrial fractions were diluted with reducing sample buffer and analyzed by western blot for SDH and GAPDH presence (see western blot analysis section). SDH activity in isolated mitochondria was analyzed using SDH Activity Colorimetric Kit (#MAK197, Sigma). Isolated mitochondria were directly resuspended in SDH Assay Buffer. In parallel, protein concentration in each sample was determined using RC/DC™ Protein Assay (Biorad) and activity was normalized to protein concentration.
# human CD14+ monocytes = assay: Cytokine production in LPS-stimulated human monocytes (ELISA); type: cell-based; settings: DI 12 h, LPS 24 h
# Experimental: Cytokines in cell supernatants were analyzed using DuoSet® ELISA kits according to manufacturer protocol (R&D Systems). The supernatants from BMDMs were diluted 1:4, from human blood monocytes 1:3.
# Blood from healthy donors was acquired from LRS chambers supplied by the Mississippi Valley Regional Blood Center. Peripheral blood mononuclear cells (PBMCs) from buffy coats were recovered from the Ficoll interface after a 400 g centrifugation for 30 min. Monocytes were isolated by adherence on a cell culture dish for 1 h at 37° C. and 5% C02 in RPMI containing 1% Human Serum Albumin (Albutein, Grifols, Spain). After extensive washes to allow removal of non-adherent cells, monocytes (>95% purity) were harvested, counted and 5×10^5 cells were plated per well in 24-well plates. The cells were treated with DI (125 μM if not stated otherwise) for 12 h and stimulated with LPS (100 ng/mL) for 1 h or as indicated. In some experiments cells were treated with DI in presence of EtGSH (1 mM, Santa Cruz).
# Nrf2 = Nrf2 response in BMDMs (western blot, target genes); type: cell-based, mouse; settings: 12 h treatment
# Experimental: BMDM were prepared from 6- to 12-week-old mice as described 1 and cultured in RMPI-1640 medium supplemented with 10% fetal bovine serum (FBS), 2 mM L-glutamine, and 100 U/mL penicillin-streptomycin and mouse recombinant M-CSF ([…], Peprotech). For experiments, cells were seeded at concentration 10^6 cells/mL in tissue culture plates of various formats. The cells were treated with DI (250 μM (unless stated otherwise), cat #592498, Sigma), DMF (50 μM (unless stated otherwise), cat #242926, Sigma), 3-(ethoxycarbonyl)but-3-enoic acid (3MI, 5 μM, Aris Pharmaceuticals Inc.), 4-ethoxy-2-methylene-4-oxobutanoic acid (MI, Aris Pharmaceuticals Inc.) for 12 h and activated with lipopolysaccharide (LPS; 100 ng/mL; E. coli 0111:B4, Sigma) for 1 h or as indicated. In some experiments cells were stimulated with combination of LPS (20 ng/mL) and IFN-γ (50 ng/mL; Peprotech). In some experiments cells were treated with α-tocopherol (AT, 10 μM; Sigma), MitoTEMPO (MT, 500 μM; Sigma), N-acetylcysteine (NAC, 1 mM, Sigma), ethylester of GSH (EtGSH; 1 mM, Santa Cruz) or buthionene sulfoximine (BSO, 500 μM, Sigma) alone or in combination with DI for 12 h. […]
# as §1, with “Proteins were separated on 4%-20% polyacrylamide gradient gels (BioRad) and transferred onto 0.45 μm pore size PVDF membranes (Millipore).” left out
# [1] = system: human primary keratinocytes; assay: Viability of primary keratinocytes (propidium iodide, flow cytometry); type: cell-based; settings: DI 12 h
# Experimental: For ROS measurements, cells were treated with DI (250 μM), loaded with 10 μM CM-H2DCFDA (Invitrogen) at RT for 30 min in Hank's balanced salt solution (HBSS). After incubation, cell were rinsed with warm HBSS, harvested and directly analyzed. Mean fluorescent intensity (MFI) of living cells is shown. For Nfkbiz 3′UTR reporter analysis GFP signal was determined in live cells. For analysis of cell viability cells were stained with propidium iodide (1 μg/mL) and percentage of negative cells was plotted. Cells were acquired on CantoII or LSRII flow cytometers (Becton Dickinson), and data were analyzed with FlowJo v.9.5.2 software (Tree Star). For gating strategy see e.g., FIG. 25.
# Primary keratinocytes were isolated from C57BL/6 WT newborn mice or human foreskins as previously described. 2×10^5 cells in 1 ml of KFSM media (Gibco cat #10725-018) [Ca2+ at 0.05 mM (mouse) and 0.09 mM (human)] were plated in 12-well tissue culture plates. After 2-3 days of cultivation, mouse or human cells were treated with DI for 12 hours and then stimulated with mouse recombinant IL-17A (100 ng/mL; cat #421-ML, R&D Systems) or human recombinant IL-17A (100 ng/mL; cat #7955-IL, R&D Systems) for 4 h or as indicated.
# T1 sequence (Q8K2B3 43-664): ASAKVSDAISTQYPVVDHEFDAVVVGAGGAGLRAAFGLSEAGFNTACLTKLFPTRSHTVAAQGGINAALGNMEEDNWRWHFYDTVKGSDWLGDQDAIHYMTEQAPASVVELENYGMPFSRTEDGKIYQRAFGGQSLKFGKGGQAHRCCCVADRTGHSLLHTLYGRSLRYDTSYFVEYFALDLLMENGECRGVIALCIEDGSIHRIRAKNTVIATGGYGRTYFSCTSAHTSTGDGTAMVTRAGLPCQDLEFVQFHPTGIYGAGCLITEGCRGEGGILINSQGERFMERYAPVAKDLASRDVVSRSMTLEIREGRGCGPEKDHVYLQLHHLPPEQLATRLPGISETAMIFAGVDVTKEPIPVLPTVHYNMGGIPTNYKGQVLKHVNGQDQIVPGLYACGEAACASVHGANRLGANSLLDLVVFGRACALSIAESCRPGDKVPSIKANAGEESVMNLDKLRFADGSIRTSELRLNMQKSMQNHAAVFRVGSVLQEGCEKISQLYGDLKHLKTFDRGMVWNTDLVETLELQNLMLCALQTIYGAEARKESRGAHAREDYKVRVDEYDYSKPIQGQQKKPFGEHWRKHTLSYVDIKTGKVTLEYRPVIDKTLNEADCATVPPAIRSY
# T1 sequence (Q9CQA3 31-282 partner): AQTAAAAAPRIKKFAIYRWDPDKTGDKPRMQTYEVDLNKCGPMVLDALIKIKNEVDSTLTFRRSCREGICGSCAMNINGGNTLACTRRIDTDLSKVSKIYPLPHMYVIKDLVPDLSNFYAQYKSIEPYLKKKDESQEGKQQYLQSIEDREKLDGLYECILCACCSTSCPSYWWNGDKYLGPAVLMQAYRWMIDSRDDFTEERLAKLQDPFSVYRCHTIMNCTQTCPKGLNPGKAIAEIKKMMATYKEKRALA
# T1 sequence (Q9CZB0 30-169 partner): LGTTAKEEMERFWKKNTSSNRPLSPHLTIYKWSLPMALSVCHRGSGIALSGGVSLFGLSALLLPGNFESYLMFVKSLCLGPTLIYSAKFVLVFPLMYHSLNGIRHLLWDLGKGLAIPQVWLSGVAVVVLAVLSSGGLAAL
# T1 sequence (Q9CXV1 57-159 partner): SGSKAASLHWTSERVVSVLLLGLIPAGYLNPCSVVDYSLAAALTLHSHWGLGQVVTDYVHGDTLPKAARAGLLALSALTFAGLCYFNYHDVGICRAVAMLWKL
smiles,measurement,setting,value
"C=C(CC(=O)OC)C(=O)OC [DI, dimethyl itaconate]",LPS-induced Ikb-ζ protein levels,IκBζ,decreased Ikb-ζ protein levels; also recorded: completely abolished
same,SDH activity in heart and liver,SDH,did not significantly affect SDH activity
same,LPS-induced cytokine production,human CD14+ monocytes,inhibition of cytokine production
same,"Nrf2 response (Nrf2 protein, target genes)",Nrf2,triggered strong Nrf2 response; also recorded: increased
same,viability of primary keratinocytes,[1],not affected
